Test results as given in ChEMBL document CHEMBL3879897, “1,4-dithiin and 1,4-dithiepin-1,1,4,4, tetroxide derivatives useful as antagonists of the human galanin receptor” (2002).

How the values were obtained:
Type in all cases: subcellular
[1] = target: T1, Galanin receptor type 1 (Rattus norvegicus) (UniProt Q62805); experiment: (§1) Antagonist activity at galanin -1 receptor in rat brain synaptosomes assessed as galanin-mediated suppression of basal [3H]-acetylcholine secretion at 1 uM measured 10 mins post 30 sces superfusing with K+-Krebs-ringer solution by liquid scintillation spectrometric method (reference value: […]%)
T1 sequence (whole entry): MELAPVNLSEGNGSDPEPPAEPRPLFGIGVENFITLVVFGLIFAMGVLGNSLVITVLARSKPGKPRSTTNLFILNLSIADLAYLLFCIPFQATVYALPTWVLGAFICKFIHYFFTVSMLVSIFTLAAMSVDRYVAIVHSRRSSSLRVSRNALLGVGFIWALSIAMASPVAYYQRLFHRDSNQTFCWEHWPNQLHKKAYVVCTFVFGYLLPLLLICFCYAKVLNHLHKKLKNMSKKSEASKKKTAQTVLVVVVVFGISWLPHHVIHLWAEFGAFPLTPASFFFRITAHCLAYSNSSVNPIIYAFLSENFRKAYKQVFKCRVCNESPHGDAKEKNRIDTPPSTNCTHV

[2] = target: T1, Galanin receptor type 1 (Rattus norvegicus); experiment: (§2) Antagonist activity at galanin -1 receptor in rat brain synaptosomes assessed as galanin-mediated suppression of basal [3H]-acetylcholine secretion at 10 uM measured 10 mins post 30 sces superfusing with K+-Krebs-ringer solution by liquid scintillation spectrometric method (reference value: […]%)
[3] = target: T1, Galanin receptor type 1 (Rattus norvegicus); experiment: as §1, with “K+-Krebs-ringer solution-induced” for “basal”
[4] = target: T1, Galanin receptor type 1 (Rattus norvegicus); experiment: as §2, with “K+-Krebs-ringer solution-induced” for “basal”

O=S1(=O)C=C(c2cccc(F)c2)S(=O)(=O)CCC1
inhibition [1]: 38.9%
inhibition [2]: 37%
inhibition [3]: 23.9%

O=S1(=O)C=C(c2ccc(I)cc2)S(=O)(=O)CCC1
inhibition [1]: 39.2%
inhibition [2]: 37%
inhibition [3]: 35.2%
inhibition [4]: 22.3%
